In ChEMBL document CHEMBL5543116, “Discovery of DNL343: A Potent, Selective, and Brain-Penetrant eIF2B Activator Designed for the Treatment of Neurodegenerative Diseases” (J Med Chem, 2024):
Values after ≈ are worked out from the molar mass of the structure shown.

Assays:
[1] = Kinetic solubility of compound; format: physicochemical; settings: read-out: Kinetic_solubility
[2] = Lipophilicity, log D of the compound at pH 7.4; format: physicochemical; settings: buffer
[3] = Metabolic stability in human liver microsome assessed as hepatic clearance; format: ADME; settings: liver microsomes
[4] = Volume of distribution at steady state in rat at 1 mg/kg, iv by LC-MS/MS analysis; format: ADME, organism-based; settings: in vivo, read-out: Vdss
[5] = Metabolic stability in rat liver microsome assessed as hepatic clearance; format: ADME; settings: liver microsomes
[6] = Half life in rat at 1 mg/kg, iv by LC-MS/MS analysis; format: ADME, organism-based; settings: in vivo
[7] = Oral bioavailability in rat at 3 mg/kg by LC-MS/MS analysis; format: ADME, organism-based; settings: in vivo
[8] = Clearance in rat at 1 mg/kg, iv by LC-MS/MS analysis; format: ADME, organism-based; settings: in vivo

Row | solubility kinetic [1] [µM] | logD [2] | CLhep predicted [3] [mL/min/kg] | further results | SMILES
1 | 141 (≈ 53.4 µg/mL) | 2.9 |  |  | O=C(COc1ccc(Cl)cc1)NC12CC(NC(=O)COC3CCC3)(C1)C2
2 | 2 (≈ 0.871 µg/mL) | 2.9 |  |  | O=C(COc1ccc(Cl)cc1)NC12CC(NC(=O)COc3ccc(Cl)cc3)(C1)C2
3 |  |  | 12 |  | O=C(NC12CC(c3nnc([C@H]4C[C@@H](OC(F)(F)F)C4)o3)(C1)C2)C1CCc2cc(Cl)ccc2O1 (stereo partly specified)
4 | < 1 | 4.6 |  |  | O=C(COc1ccc(Cl)cc1)NC12CCC(NC(=O)COc3ccc(Cl)cc3)(CC1)C2
5 |  |  | < 6 |  | O=C(NC12CC(c3nnc([C@H]4C[C@@H](OC(F)(F)F)C4)o3)(C1)C2)c1nc2cc(Cl)ccc2o1
6 |  |  | < 6 | Vd [4]: 0.26 L/kg; CLhep predicted [5]: < 17 mL/min/kg; half-life [6]: 22.9 h; bioavailability [7]: 39%; clearance [8]: 0.4 mL/min/kg | O=C(COc1ccc(C(F)(F)F)cc1)NC12CC(c3nnc([C@H]4C[C@@H](OC(F)(F)F)C4)o3)(C1)C2
7 |  | 3.6 | 13 |  | O=C(COc1ccc(Cl)c(F)c1)NC12CC(NC(=O)CO[C@H]3C[C@H](C(F)(F)F)C3)(C1)C2
8 | < 1 | 3.7 |  |  | O=C(COc1ccc(Cl)cc1)N[C@H]1CC[C@H](NC(=O)COc2ccc(Cl)cc2)CC1
9 |  |  | < 6 |  | O=C(COc1ccc(Cl)c(F)c1)NC12CC(c3cnn([C@H]4C[C@@H](OC(F)(F)F)C4)n3)(C1)C2
10 | 34 (≈ 13.4 µg/mL) | 3.4 |  |  | O=C(COc1ccc(Cl)cc1)NC12CC(NC(=O)COC3CCCC3)(C1)C2
